From patent US11572590B2, “Methods for evaluating tumor cell spheroids using 3D microfluidic cell culture device” (Dana-Farber Cancer Institute, Inc., priority 2017, dated 2023)
Read-outs that look alike come from different tables or passages of the source.

How the values were obtained:
Assay in all cases: SelectScreen Kinase Profiling, single point inhibition and IC50 for off-target kinases
Type in all cases: biochemical
off-target kinases [1] = biological target: T1, off-target kinases (Homo sapiens, UniProt O94806); settings: PRKCN (PKD3), ATP Km app, ZLYTE
T1 sequence (O94806 1-890): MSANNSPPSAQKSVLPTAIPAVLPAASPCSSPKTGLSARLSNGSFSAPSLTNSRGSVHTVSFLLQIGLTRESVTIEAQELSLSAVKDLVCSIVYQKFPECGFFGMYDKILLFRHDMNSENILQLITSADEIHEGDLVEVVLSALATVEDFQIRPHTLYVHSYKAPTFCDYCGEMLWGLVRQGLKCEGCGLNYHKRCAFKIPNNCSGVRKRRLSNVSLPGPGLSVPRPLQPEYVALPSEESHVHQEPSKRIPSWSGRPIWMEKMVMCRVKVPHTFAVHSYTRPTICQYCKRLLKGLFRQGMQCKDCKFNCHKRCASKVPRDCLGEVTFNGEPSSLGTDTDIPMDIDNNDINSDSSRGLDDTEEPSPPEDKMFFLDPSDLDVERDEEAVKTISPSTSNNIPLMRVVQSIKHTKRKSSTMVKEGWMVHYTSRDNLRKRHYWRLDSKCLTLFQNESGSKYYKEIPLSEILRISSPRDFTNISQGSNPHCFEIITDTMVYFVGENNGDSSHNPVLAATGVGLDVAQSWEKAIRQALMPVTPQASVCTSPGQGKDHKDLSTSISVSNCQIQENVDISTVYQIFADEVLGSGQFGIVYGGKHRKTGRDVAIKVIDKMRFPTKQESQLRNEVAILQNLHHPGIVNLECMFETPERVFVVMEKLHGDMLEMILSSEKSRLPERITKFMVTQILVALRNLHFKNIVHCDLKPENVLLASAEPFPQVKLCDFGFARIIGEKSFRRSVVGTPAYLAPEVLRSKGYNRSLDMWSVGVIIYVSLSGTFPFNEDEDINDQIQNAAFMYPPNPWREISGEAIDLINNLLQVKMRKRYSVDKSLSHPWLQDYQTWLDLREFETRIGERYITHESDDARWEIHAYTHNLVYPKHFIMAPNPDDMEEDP
Protocol: (§1) Biochemical single point inhibition and IC50 concentrations for TBK1, IKKε (IKBKE), and off-target kinases were determined at ThermoFisher Scientific using SelectScreen Kinase Profiling Services (Madison, Wis., USA) (Tables S4A and S4B-1-7). To determine cellular potency, the human colorectal cancer carcinoma cell line HCT116 (ATCC, Manassas, Va.) was maintained in T175 flasks in complete RPMI medium; RPMI 1640 supplemented with 10% FBS, 1× Penicillin-Streptomycin solution and 1×MEM (non-essential amino acids). HCT116 cells were grown to 90-95% confluency in T175 flasks containing complete RPMI medium and transfected in bulk using Lipofectamine 2000 (Invitrogen, Carlsbad, Calif.) with 70 μg of ISG54-luciferase reporter plasmid (Elim Biopharmaceuticals Inc., Hayward, Calif.). The reporter plasmid contains a luciferase gene expression cassette under the transcriptional regulation of the promoter of the human interferon stimulated gene 54 (ISG54). Transfection of the cells was allowed to take place for 6 hours, after which the cells were harvested by treatment with 0.25% trypsin EDTA (Corning Inc., Corning, N.Y.). Trypsinized cells were added to 384-well poly-d-lysine treated black clear bottom tissue culture assay plates (Greiner Bio-One GmbH, Kremsmünster, Austria) at a density of 20,000 cells/well in 80 μL of complete RPMI medium and incubated overnight. After 16-18 hours post-transfection, the assay plates were washed with PBS (Corning Inc., Corning, N.Y.), followed by addition of 80 μL/well of serum-free RPMI 1640 medium containing 1× Penicillin-Streptomycin solution, 1×MEM and 350 nL of DMSO or titrations of Compound 1. Compound 1 titrations were generated by 1.5-fold dilution steps in two overlapping serial dilution series to generate a 40-point compound dose range. After incubation at 37° C. for 1 hour, the cells were stimulated with Poly(I:C) (InvivoGen, San Diego, Calif.) at a final concentration of 15 μg/mL in Optimem media (Life Technologies, Rockville, Md.). The assay plates were incubated for 5 hours at 37° C., followed by addition of One-Glo luciferase firefly reagent (Promega, Madison, Wis.) at 1:1 volume/well and luminescence was measured in an EnVision Multilabel Plate Reader (PerkinElmer, Santa Clara, Calif.). The EC50 values were calculated from the fit of the dose-response curves to a four-parameter equation. All EC50 values represent geometric mean values of a minimum of four determinations.

off-target kinases [2] = biological target: off-target kinases (Homo sapiens, UniProt P04626)
Protocol: as §1

off-target kinases [3] = biological target: off-target kinases (Homo sapiens, UniProt P07948); settings: LYN A, ATP Km app, ZLYTE
Protocol: as §1

off-target kinases [4] = biological target: T2, off-target kinases (Homo sapiens, UniProt P36897); settings: TGFBR1 (ALK5), LanthaScreen Binding
T2 sequence (P36897 34-503): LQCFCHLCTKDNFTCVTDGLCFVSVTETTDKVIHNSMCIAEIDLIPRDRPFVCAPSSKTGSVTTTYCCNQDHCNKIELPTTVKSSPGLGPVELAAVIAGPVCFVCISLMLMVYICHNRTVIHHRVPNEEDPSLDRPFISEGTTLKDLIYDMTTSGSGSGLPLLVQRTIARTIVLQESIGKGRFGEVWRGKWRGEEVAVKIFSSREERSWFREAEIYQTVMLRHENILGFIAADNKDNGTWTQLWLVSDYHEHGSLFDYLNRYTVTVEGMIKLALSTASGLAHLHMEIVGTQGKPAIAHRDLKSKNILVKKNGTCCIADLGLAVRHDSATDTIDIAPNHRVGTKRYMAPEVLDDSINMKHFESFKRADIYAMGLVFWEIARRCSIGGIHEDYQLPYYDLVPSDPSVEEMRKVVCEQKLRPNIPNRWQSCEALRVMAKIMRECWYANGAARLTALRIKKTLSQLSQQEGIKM
Protocol: as §1

off-target kinases [5] = biological target: off-target kinases (Homo sapiens, UniProt P78368); settings: CSNK1G2 (CK1 gamma 2); Cmpd1 1000 μM; ATP Km app; ZLYTE
Protocol: as §1

off-target kinases [6] = biological target: off-target kinases (Homo sapiens, UniProt Q15375); settings: EPHA7, LanthaScreen Binding
Protocol: as §1

Sequence of off-target kinases (Homo sapiens, UniProt P07948) (P07948 whole entry): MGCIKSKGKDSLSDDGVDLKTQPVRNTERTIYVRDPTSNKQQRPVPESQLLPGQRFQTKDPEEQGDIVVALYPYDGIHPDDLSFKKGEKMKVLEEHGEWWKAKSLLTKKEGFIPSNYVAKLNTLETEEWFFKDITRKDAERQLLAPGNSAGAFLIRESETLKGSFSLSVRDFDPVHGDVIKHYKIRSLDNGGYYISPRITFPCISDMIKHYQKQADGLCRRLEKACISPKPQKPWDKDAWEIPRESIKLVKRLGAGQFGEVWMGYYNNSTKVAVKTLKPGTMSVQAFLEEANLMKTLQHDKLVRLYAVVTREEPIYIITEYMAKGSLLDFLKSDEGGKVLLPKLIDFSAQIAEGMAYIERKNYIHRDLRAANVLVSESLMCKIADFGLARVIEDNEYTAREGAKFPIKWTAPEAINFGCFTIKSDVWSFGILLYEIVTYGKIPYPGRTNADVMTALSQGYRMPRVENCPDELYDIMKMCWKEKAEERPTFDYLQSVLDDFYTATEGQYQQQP
Sequence of off-target kinases (Homo sapiens, UniProt P04626) (P04626 23-1255): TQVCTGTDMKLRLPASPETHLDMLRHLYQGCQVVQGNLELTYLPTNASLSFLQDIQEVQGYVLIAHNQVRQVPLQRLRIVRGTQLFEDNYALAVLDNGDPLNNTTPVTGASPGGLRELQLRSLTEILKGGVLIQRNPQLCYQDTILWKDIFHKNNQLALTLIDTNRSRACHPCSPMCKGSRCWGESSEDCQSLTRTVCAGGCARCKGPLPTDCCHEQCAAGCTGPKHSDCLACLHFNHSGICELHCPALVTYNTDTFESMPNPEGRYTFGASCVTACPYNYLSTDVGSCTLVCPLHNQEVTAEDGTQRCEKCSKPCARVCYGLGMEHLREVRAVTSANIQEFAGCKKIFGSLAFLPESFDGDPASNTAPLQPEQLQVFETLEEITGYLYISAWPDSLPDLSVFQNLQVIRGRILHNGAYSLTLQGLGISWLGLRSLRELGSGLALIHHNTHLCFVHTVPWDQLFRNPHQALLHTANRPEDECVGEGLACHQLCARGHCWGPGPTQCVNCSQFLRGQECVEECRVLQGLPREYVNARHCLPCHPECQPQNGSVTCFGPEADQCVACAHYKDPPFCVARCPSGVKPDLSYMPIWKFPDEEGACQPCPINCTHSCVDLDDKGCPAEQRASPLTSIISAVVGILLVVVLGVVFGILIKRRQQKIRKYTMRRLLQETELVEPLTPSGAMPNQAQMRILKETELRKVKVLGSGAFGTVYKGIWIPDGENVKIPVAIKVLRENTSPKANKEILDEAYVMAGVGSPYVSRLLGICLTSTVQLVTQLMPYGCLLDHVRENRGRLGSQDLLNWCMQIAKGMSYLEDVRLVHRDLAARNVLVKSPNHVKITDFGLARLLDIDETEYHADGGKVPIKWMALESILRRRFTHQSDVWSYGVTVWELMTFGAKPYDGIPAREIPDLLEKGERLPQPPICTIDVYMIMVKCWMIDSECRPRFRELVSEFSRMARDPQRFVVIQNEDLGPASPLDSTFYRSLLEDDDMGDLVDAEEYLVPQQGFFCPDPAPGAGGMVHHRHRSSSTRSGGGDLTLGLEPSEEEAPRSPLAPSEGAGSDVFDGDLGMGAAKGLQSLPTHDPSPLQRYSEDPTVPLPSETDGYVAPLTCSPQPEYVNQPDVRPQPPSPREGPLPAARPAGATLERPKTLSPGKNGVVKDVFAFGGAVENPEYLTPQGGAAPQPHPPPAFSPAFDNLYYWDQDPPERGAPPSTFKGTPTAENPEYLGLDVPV
Sequence of off-target kinases (Homo sapiens, UniProt Q15375) (Q15375 28-998): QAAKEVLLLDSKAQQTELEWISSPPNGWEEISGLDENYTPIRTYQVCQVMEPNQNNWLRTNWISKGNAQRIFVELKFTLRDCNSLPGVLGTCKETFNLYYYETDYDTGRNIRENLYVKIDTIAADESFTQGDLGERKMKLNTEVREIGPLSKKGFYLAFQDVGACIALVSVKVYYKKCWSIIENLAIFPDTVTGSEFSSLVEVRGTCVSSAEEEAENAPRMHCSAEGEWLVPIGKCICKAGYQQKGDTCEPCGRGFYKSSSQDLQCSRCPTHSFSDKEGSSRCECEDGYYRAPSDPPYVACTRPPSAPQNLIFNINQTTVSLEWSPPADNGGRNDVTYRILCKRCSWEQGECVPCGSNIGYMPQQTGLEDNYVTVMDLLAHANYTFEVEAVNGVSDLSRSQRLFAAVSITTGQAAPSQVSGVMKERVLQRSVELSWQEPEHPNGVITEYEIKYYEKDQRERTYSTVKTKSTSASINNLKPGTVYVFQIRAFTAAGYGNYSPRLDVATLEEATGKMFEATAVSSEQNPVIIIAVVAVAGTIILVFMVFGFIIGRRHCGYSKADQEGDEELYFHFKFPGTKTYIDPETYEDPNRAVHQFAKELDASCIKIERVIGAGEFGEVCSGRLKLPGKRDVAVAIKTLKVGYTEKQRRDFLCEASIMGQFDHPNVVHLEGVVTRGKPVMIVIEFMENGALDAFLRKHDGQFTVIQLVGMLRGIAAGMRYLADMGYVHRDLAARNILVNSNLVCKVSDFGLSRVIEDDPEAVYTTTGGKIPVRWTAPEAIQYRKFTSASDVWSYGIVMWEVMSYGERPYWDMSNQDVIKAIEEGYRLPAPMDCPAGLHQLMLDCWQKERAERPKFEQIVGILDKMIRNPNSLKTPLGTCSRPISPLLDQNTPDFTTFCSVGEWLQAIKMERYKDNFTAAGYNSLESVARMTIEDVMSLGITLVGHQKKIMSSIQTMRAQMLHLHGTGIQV
Sequence of off-target kinases (Homo sapiens, UniProt P78368) (P78368 whole entry): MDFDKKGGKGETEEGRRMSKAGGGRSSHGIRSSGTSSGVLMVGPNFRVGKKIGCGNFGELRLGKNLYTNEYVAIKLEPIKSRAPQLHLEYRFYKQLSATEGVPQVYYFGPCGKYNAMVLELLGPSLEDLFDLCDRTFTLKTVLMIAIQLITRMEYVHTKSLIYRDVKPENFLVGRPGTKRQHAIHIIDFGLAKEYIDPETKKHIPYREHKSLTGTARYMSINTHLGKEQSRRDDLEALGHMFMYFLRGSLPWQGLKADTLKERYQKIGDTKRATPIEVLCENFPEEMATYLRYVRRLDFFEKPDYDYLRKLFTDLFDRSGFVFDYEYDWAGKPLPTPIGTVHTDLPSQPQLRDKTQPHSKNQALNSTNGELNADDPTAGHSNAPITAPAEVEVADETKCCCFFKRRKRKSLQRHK

SMILES: N#Cc1cc(-c2ncnc(Nc3ccc(N4CCN(C5COC5)CC4)cc3)n2)ccc1OC1CCOCC1 [Compound 1, 5-(4-((4-(4-(oxetan-3-yl)piperazin-1-yl)phenyl)amino)-1,3,5-triazin-2-yl)-2-((tetrahydro-2H-pyran-4-yl)oxy)benzonitrile]
- inhibition (off-target kinases [1]; read-out: % Inhibition 1): 98%
- inhibition (off-target kinases [1]; read-out: % Inhibition 2): 96%
- inhibition (off-target kinases [1]; read-out: % Inhibition Avg): 97%
- inhibition (off-target kinases [2]; ERBB2 (HER2), ZLYTE, ATP Km app, read-out: % Inhibition 1): 0%
- inhibition (off-target kinases [2]; ERBB2 (HER2), ZLYTE, ATP Km app, read-out: % Inhibition 2): -3%
- inhibition (off-target kinases [2]; read-out: % Inhibition Avg): -1%
- inhibition (off-target kinases [3]; read-out: % Inhibition 1): 48%
- inhibition (off-target kinases [3]; read-out: % Inhibition 2): 48%
- inhibition (off-target kinases [3]; read-out: % Inhibition Avg): 48%
- inhibition (off-target kinases [4]; read-out: % Inhibition 1): 56%
- inhibition (off-target kinases [4]; read-out: % Inhibition 2): 58%
- inhibition (off-target kinases [4]; read-out: % Inhibition Avg): 57%
- % Inhibition 1 (off-target kinases [5]): −7%
- % Inhibition 2 (off-target kinases [5]): −16%
- % Inhibition Avg (off-target kinases [5]): −11%
- inhibition (off-target kinases [6]; read-out: % Inhibition 1): 10%
- inhibition (off-target kinases [6]; read-out: % Inhibition 2): 12%
- inhibition (off-target kinases [6]; read-out: % Inhibition Avg): 11%
